According to ChEMBL document CHEMBL1201862, “PubChem BioAssay data set” (2004):
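Interpolation was linear, between the two tested concentrations surrounding the appropriate level; five concentrations were tested over 48 hours in 96-well plates. GI50 marks 50% less growth.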 The source made the active and inactive calls. Rule as the data show it: active = GI50 up to about 1.1 µM and inactive = higher.

Columns and labels:
Assay in all cases: growth of human tumour cells (NCI), 48 h
[1] = test system: MDA-N
[2] = test system: BT-549
[3] = test system: SNB-19
[4] = test system: 786-0
[5] = test system: SW-620
[6] = test system: HCT-116
[7] = test system: SN12C
[8] = test system: RPMI-8226
[9] = test system: DU-145
[10] = test system: M14
[11] = test system: NCI-H23
[12] = test system: RXF 393
[13] = test system: COLO 205
[14] = test system: UACC-62
[15] = test system: U-251
[16] = test system: HCT-15
[17] = test system: UACC-257
[18] = test system: SK-MEL-28
[19] = test system: MCF7
[20] = test system: SF-539
[21] = test system: T47D
[22] = test system: SF-268
[23] = test system: PC-3
[24] = test system: CAKI-1
[25] = test system: IGROV-1
[26] = test system: OVCAR-5
[27] = test system: HOP-62
[28] = test system: SF-295
[29] = test system: NCI/ADR-RES
[30] = test system: NCI-H460
[31] = test system: Malme-3M
[32] = test system: SK-OV-3
[33] = test system: A498
[34] = test system: ACHN
[35] = test system: A549
[36] = test system: HT-29
[37] = test system: EKVX
[38] = test system: OVCAR-3
[39] = test system: SNB-75
[40] = test system: TK-10
[41] = test system: MOLT-4
[42] = test system: OVCAR-8
[43] = test system: HCC 2998
[44] = test system: KM12
[45] = test system: UO-31
[46] = test system: NCI-H522
[47] = test system: SK-MEL-2
[48] = test system: SR
[49] = test system: LOX IMVI
[50] = test system: MDA-MB-231
[51] = test system: MDA-MB-435
[52] = test system: HL-60
[53] = test system: NCI-H226
[54] = test system: K562
[55] = test system: OVCAR-4
[56] = test system: CCRF-CEM
[57] = test system: HOP-92
[58] = test system: SK-MEL-5

With `COc1ccc(C(=O)c2[nH]c(Nc3cc(C)ccn3)c(C(=S)Nc3ccccc3)c2N)cc1` the GI50 [1] was 15.3 µM (inactive), the GI50 [2] was 19.6 µM (inactive) and the GI50 [3] was 18.8 µM (inactive). The GI50 [4] was 21 µM (inactive), the GI50 [5] was 25.3 µM (inactive) and the GI50 [6] was 20.7 µM (inactive). For the same compound, the GI50 [7] was 18.2 µM (inactive), the GI50 [8] was 13.3 µM (inactive) and the GI50 [9] was 36.6 µM (inactive). For the same compound, the GI50 [10] was 20.5 µM (inactive), the GI50 [11] was 21.9 µM (inactive) and the GI50 [12] was 16.9 µM (inactive). For the same compound, the GI50 [13] was 19.4 µM (inactive), the GI50 [14] was 12.9 µM (inactive) and the GI50 [15] was 15.3 µM (inactive). For the same compound, the GI50 [16] was 21.1 µM, the GI50 [17] was 15.9 µM (inactive) and the GI50 [18] was 17 µM (inactive). The GI50 [19] was 20.4 µM (inactive), the GI50 [20] was 18.3 µM (inactive) and the GI50 [21] was 51.2 µM (inactive). For the same compound, the GI50 [22] was 21.9 µM (inactive), the GI50 [23] was 21.2 µM (inactive) and the GI50 [24] was 36.6 µM (inactive). The GI50 [25] was 12.2 µM (inactive), the GI50 [26] was 26.1 µM (inactive) and the GI50 [27] was 24.7 µM (inactive). For the same compound, the GI50 [28] was 17.9 µM (inactive), the GI50 [29] was 3.49 µM (inactive) and the GI50 [30] was 6.04 µM (inactive). The GI50 [31] was 14.6 µM (inactive), the GI50 [32] was 19.5 µM (inactive) and the GI50 [33] was 15.9 µM (inactive). For the same compound, the GI50 [34] was 30.4 µM (inactive), the GI50 [35] was 23.4 µM (inactive) and the GI50 [36] was 17.5 µM (inactive). The GI50 [37] was 22.3 µM (inactive), the GI50 [38] was 41.6 µM (inactive) and the GI50 [39] was 20.5 µM (inactive). For the same compound, the GI50 [40] was 20 µM (inactive), the GI50 [41] was 23.4 µM (inactive) and the GI50 [42] was 17.2 µM (inactive). The GI50 [43] was 17.1 µM (inactive), the GI50 [44] was 13.3 µM (inactive) and the GI50 [45] was 21.8 µM (inactive). The GI50 [46] was 13.8 µM (inactive), the GI50 [47] was 10.1 µM (inactive) and the GI50 [48] was 15.2 µM (inactive). For the same compound, the GI50 [49] was 18.7 µM (inactive), the GI50 [50] was 20 µM (inactive) and the GI50 [51] was 19.4 µM (inactive). The GI50 [52] was 24.3 µM (inactive), the GI50 [53] was 17.1 µM (inactive) and the GI50 [54] was 25.1 µM (inactive). The GI50 [55] was 10.9 µM (inactive).

`COc1ccc(-c2c(C#N)c(S)n(NS(=O)(=O)c3ccc(C)cc3)c(=O)c2C#N)cc1` was tested, and the GI50 [1] was 17.6 µM (inactive), the GI50 [2] was 13.4 µM (inactive) and the GI50 [3] was 35.8 µM (inactive). The GI50 [4] was 15.6 µM (inactive), the GI50 [5] was 18.6 µM (inactive) and the GI50 [6] was 14.4 µM (inactive). The GI50 [7] was 17.2 µM (inactive), the GI50 [8] was 3.42 µM (inactive) and the GI50 [10] was 17.7 µM (inactive). The GI50 [12] was 17.5 µM (inactive), the GI50 [13] was 18.2 µM (inactive) and the GI50 [14] was 15.6 µM (inactive). The GI50 [15] was 29.4 µM (inactive), the GI50 [16] was 16 µM and the GI50 [17] was 32 µM (inactive). The GI50 [18] was 24.2 µM (inactive), the GI50 [19] was 29.4 µM (inactive) and the GI50 [20] was 14.6 µM (inactive). For the same compound, the GI50 [22] was 23.4 µM (inactive), the GI50 [23] was 18.2 µM (inactive) and the GI50 [24] was 44.5 µM (inactive). For the same compound, the GI50 [25] was 14.6 µM (inactive), the GI50 [26] was 16.7 µM (inactive) and the GI50 [27] was 29.6 µM (inactive). The GI50 [28] was 30 µM (inactive), the GI50 [29] was 20.3 µM (inactive) and the GI50 [30] was 32.6 µM (inactive). For the same compound, the GI50 [31] was 24.6 µM (inactive), the GI50 [32] was 32.8 µM (inactive) and the GI50 [33] was 30.5 µM (inactive). The GI50 [34] was 16.4 µM (inactive), the GI50 [56] was 4.06 µM (inactive) and the GI50 [35] was 27.5 µM (inactive). For the same compound, the GI50 [36] was 31.6 µM (inactive), the GI50 [37] was 25.8 µM (inactive) and the GI50 [39] was 30.5 µM (inactive). For the same compound, the GI50 [40] was 32.4 µM (inactive), the GI50 [41] was 7.06 µM (inactive) and the GI50 [42] was 20.2 µM (inactive). The GI50 [43] was 30.3 µM (inactive), the GI50 [44] was 15.3 µM (inactive) and the GI50 [57] was 33.1 µM (inactive). The GI50 [46] was 14.8 µM (inactive), the GI50 [47] was 15.3 µM (inactive) and the GI50 [49] was 13.9 µM (inactive). The GI50 [50] was 17.8 µM (inactive), the GI50 [52] was 11.1 µM (inactive) and the GI50 [53] was 20 µM (inactive). For the same compound, the GI50 [54] was 18.7 µM (inactive), the GI50 [58] was 13.8 µM (inactive) and the GI50 [55] was 23.7 µM (inactive).
